Our source for the IC50 values is patent publication US20240199701A1, “IMMUNOMODULATORS” (BRISTOL-MYERS SQUIBB COMPANY, priority 2021, published 2024).

The target in one test is T1, PD-1-Ig/PD-L1-His (Homo sapiens, UniProt Q9NZQ7).
T1 construct: hPDL1(19-239)-TVMV-His; TVMV protease cleavage site (C); made in house; host or cells: HEK293T
Kind of test: PD-1/PD-L1 Homogenous Time-Resolved Fluorescence (HTRF) binding assay. An excerpt: The ability of the macrocyclic peptides of the present disclosure to bind to PD-L1 was investigated using a PD-1/PD-L1 Homogenous Time-Resolved Fluorescence (HTRF) binding assay.
Homogenous Time-Resolved Fluorescence (HTRF) Assays of Binding of Soluble PD-1 to Soluble PD-L1. Soluble PD-1 and soluble PD-L1 refers to proteins with carboxyl-end truncations that remove the transmembrane-spanning regions and are fused to heterologous sequences, specifically the Fc portion of the human immunoglobulin G sequence (Ig) or the hexahistidine epitope tag (His). All binding studies were performed in an HTRF assay buffer consisting of dPBS supplemented with 0.1% (w/v) bovine serum albumin and 0.05% (v/v) Tween-20. For the PD-1-Ig/PD-L1-His binding assay, inhibitors were pre-incubated with PD-L1-His (10 nM final) for 15 m in 4 μl of assay buffer, followed by addition of PD-1-Ig (20 nM final) in 1 μl of assay buffer and further incubation for 15 m. PD-L1 fusion proteins from either human, cynomologous macaques, mouse, or other species were used. HTRF detection was achieved using europium crypate-labeled anti-Ig monoclonal antibody (1 nM final) and allophycocyanin (APC) labeled anti-His monoclonal antibody (20 nM final). Antibodies were diluted in HTRF detection buffer and 5 μl was dispensed on top of binding reaction. The reaction was allowed to equilibrate for 30 minutes and signal (665 nm/620 nm ratio) was obtained using an EnVision fluorometer. Additional binding assays were established between PD-1-Ig/PD-L2-His (20 and 5 nM, respectively), CD80-His/PD-L1-Ig (100 and 10 nM, respectively) and CD80-His/CTLA4-Ig (10 and 5 nM, respectively).
Recombinant Proteins. Carboxyl-truncated human PD-1 (amino acids 25-167) with a C-terminal human Ig epitope tag [hPD-1 (25-167)-3S-IG] and human PD-L1 (amino acids 18-239) with a C-terminal His epitope tag [hPD-L1(19-239)-tobacco vein mottling virus protease cleavage site (TVMV)-His] were expressed in HEK293T cells and purified sequentially by recombinant Protein A affinity chromatography and size exclusion chromatography. Human PD-L2-His (Sino Biologicals), CD80-His (Sino Biologicals), CTLA4-Ig (RnD Systems) were all obtained through commercial sources.

Test [1] addresses T2, 293T-hPD-L1 cells (binding of PE-labeled PD-1-Ig to human PD-L1) (Homo sapiens, UniProt Q9NZQ7).
T2 construct: expressed in transfected cells
The experiment in a line: 293T-hPD-L1 Cell Binding High-Content Screening Assay (CBA). Conditions: 293T cells over-expressing human PD-L1, PE-labeled PD-1-Ig 0.5 nM, 10% fetal calf serum; read-out: 293T-hPD-L1_PD-1 IC50. It is filed as cell-based. The procedure: 293T-hPD-L1 Cell Binding High-Content Screening Assay (CBA). Phycoerythrin (PE) was covalently linked to the Ig epitope tag of human PD-1-Ig and fluorescently-labeled PD-1-Ig was used for binding studies with a human embryonic kidney cell line (293T) stably over-expressing human PD-L1 (293T-hPD-L1). Briefly, 2×10^3 293T-hPD-L1 cells were seeded into 384 well plates in 20 μl of DMEM supplemented with 10% fetal calf serum and cultured overnight. 125 nl of compound was added to cells followed by 5 μl of PE-labeled PD-1-Ig (0.5 nM final), diluted in DMEM supplemented with 10% fetal calf serum, followed by incubation at 37° C. for Ih. Cells were washed 3× in 100 μl dPBS followed by fixation with 30 μl of 4% paraformaldehyde in dPBS containing 10 μg/ml Hoechst 33342 for 30 min at room temperature. Cells were washed 3× in 100 μl of dPBS followed by final addition of 15 μl of dPBS. Data was collected and processed using a Cell Insight NXT High Content Imager and associated software.

In test [2] the target is Recombinant Human PD-L1-TVMV-His, hPDL1(19-239)-TVMV-His (human) (UniProt Q9NZQ7). Kind of test: HTRF competition, inhibits PD-1-Ig binding to PD-L1-His. In general terms: TR-FRET usually uses a lanthanide donor and a delayed reading to cut background.
[3] abbreviates: soluble hPD-1-Ig / hPD-L1-His, HTRF, read-out: LE HTRF hPD1 hPDL1 IC50.

Read-outs that look alike come from different tables or passages of the source. Starred links: 1 amine or outer side, 2 acyl side, 3 side chain; linkers in the order of their positions; H or OH if unused. Positions of bridges follow the written chain, without caps; N, C: chain ends. Non-standard residues stand in square brackets, D forms with d. Groups on a side chain read outwards from the residue. Primed or numbered codes have the meaning given here. *: point of attachment. Trp(1-CH2CO) = O=C([C@H](Cc1cn(CC(=O)[*:3])c2ccccc12)N[*:1])[*:2]; Pra′ = C-terminal residue bearing an alkyne, joined as triazole; Hexadecanoyl(16-SO3H) = O=C(CCCCCCCCCCCCCCCS(=O)(=O)O)*; γGlu = O=C(O)[C@H](CCC(=O)[*:2])N[*:1]; Hyp = O=C(O)[C@@H]1C[C@@H](O)CN1; NMeNle = CCCC[C@H](NC)C(=O)O; PEG11′ = not defined here; NMeA = CN[C@@H](C)C(=O)O; Dab = NCC[C@H](N)C(=O)O; Dap = NC[C@H](N)C(=O)O

T2 sequence (Q9NZQ7 19-290): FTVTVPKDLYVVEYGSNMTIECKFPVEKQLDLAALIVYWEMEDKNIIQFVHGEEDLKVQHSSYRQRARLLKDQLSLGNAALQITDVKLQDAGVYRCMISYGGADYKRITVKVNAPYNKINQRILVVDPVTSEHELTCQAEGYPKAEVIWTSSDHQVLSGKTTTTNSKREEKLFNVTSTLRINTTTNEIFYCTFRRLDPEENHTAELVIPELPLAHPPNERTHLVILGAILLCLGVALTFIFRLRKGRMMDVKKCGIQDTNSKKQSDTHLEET
Chain of Recombinant Human PD-L1-TVMV-His, hPDL1(19-239)-TVMV-His (human) (Q9NZQ7 other isoform, or with tags, fused parts or gaps limits assumed): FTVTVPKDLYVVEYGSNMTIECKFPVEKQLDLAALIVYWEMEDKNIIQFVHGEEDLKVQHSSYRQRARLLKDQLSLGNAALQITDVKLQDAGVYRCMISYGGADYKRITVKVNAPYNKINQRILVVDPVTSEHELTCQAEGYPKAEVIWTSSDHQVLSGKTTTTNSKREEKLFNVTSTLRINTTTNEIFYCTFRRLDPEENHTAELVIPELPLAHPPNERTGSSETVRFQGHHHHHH

`CCCC[C@H]1C(=O)N(C)[C@@H](CCCC)C(=O)N[C@@H](CC(C)C)C(=O)N[C@H](C(=O)N[C@@H](C)C(=O)N[C@@H](Cc2cn(CCOCCOCCOCCOCCOCCOCCOCCOCCOCCOCCOCCNC(=O)CC[C@H](NC(=O)CCCCCCCCCCCCCCCS(=O)(=O)O)C(=O)O)nn2)C(=O)O)CSCC(=O)N[C@@H](Cc2ccc(O)cc2)C(=O)N(C)[C@@H](C)C(=O)N[C@@H](CC(N)=O)C(=O)N2CCC[C@H]2C(=O)N[C@@H](CN)C(=O)N[C@@H](CC(C)C)C(=O)N2C[C@H](O)C[C@H]2C(=O)N[C@@H](Cc2c[nH]c3ccccc23)C(=O)N[C@@H](CCN)C(=O)N[C@@H](Cc2cn(CC(=O)O)c3ccccc23)C(=O)N1C` [Example 1002]: the IC50 (usually the concentration that inhibits the measured activity by half) was 2 nM at PD-1-Ig/PD-L1-His (setting [3]) and 0.1 nM in test [1].

For the molecule `CCCC[C@H]1C(=O)N(C)[C@@H](CCCC)C(=O)N[C@@H](CC(C)C)C(=O)N[C@H](C(=O)N[C@@H](CCCN)C(=O)N[C@@H](Cc2cn(CCOCCOCCOCCOCCOCCOCCOCCOCCOCCOCCOCCNC(=O)CC[C@H](NC(=O)CCCCCCCCCCCCCCCS(=O)(=O)O)C(=O)O)nn2)C(=O)O)CSCC(=O)N[C@@H](Cc2ccc(O)cc2)C(=O)N(C)[C@@H](C)C(=O)N[C@@H](CC(N)=O)C(=O)N2CCC[C@H]2C(=O)N[C@@H](CN)C(=O)N[C@@H](CC(C)C)C(=O)N2C[C@H](O)C[C@H]2C(=O)N[C@@H](Cc2c[nH]c3ccccc23)C(=O)N[C@@H](CCN)C(=O)N[C@@H](Cc2cn(CC(=O)O)c3ccccc23)C(=O)N1C` [Example 1003], the IC50 on PD-1-Ig/PD-L1-His (setting [3]) was found to be 38.1 nM.

In the case of `CCCC[C@H]1C(=O)N(C)[C@@H](CCCC)C(=O)N[C@@H](CC(C)C)C(=O)N[C@H](C(=O)NCC(=O)N[C@@H](Cc2cn(CCOCCOCCNC(=O)[C@H](CCC(=O)O)NC(=O)CC[C@H](NC(=O)CCCCCCCCCCCCCCCS(=O)(=O)O)C(=O)O)nn2)C(=O)O)CSCC(=O)N[C@@H](Cc2ccc(O)cc2)C(=O)N(C)[C@@H](C)C(=O)N[C@@H](CC(N)=O)C(=O)N2CCC[C@H]2C(=O)N[C@@H](CN)C(=O)N[C@@H](CC(C)C)C(=O)N2C[C@H](O)C[C@H]2C(=O)N[C@@H](Cc2c[nH]c3ccccc23)C(=O)N[C@@H](CCN)C(=O)N[C@@H](Cc2cn(CC(=O)O)c3ccccc23)C(=O)N1C` [Example 1006], in test [1], the IC50 is 61.8 nM.

`CCCC[C@H]1C(=O)N(C)[C@@H](CCCC)C(=O)N[C@@H](CC(C)C)C(=O)N[C@H](C(=O)NCC(=O)N[C@@H](Cc2cn(CCOCCOCCOCCOCCOCCOCCOCCOCCOCCOCCOCCNC(=O)CC[C@H](NC(=O)CCCCCCCCCCCCCCCP(=O)(O)O)C(=O)O)nn2)C(=O)O)CSCC(=O)N[C@@H](Cc2ccc(O)cc2)C(=O)N(C)[C@@H](C)C(=O)N[C@@H](CC(N)=O)C(=O)N2CCC[C@H]2C(=O)N[C@@H](CN)C(=O)N[C@@H](CC(C)C)C(=O)N2C[C@H](O)C[C@H]2C(=O)N[C@@H](Cc2c[nH]c3ccccc23)C(=O)N[C@@H](CCN)C(=O)N[C@@H](Cc2cn(CC(=O)O)c3ccccc23)C(=O)N1C` [Example 1007] showed an IC50 on PD-1-Ig/PD-L1-His of 14 nM.

`CCCC[C@H]1C(=O)N(C)[C@@H](CCCC)C(=O)N[C@@H](CC(C)C)C(=O)N[C@H](C(=O)NCC(=O)N[C@@H](Cc2cn(CCOCCOCCOCCOCCOCCOCCOCCOCCOCCOCCOCCNC(=O)CC[C@H](NC(=O)CCCCCCCCCCCCCCCS(=O)(=O)O)C(=O)O)nn2)C(=O)O)CSCC(=O)N[C@@H](Cc2ccc(O)cc2)C(=O)N(C)[C@@H](C)C(=O)N[C@@H](CC(N)=O)C(=O)N2CCC[C@H]2C(=O)N[C@@H](CN)C(=O)N[C@@H](CC(C)C)C(=O)N2C[C@H](O)C[C@H]2C(=O)N[C@@H](Cc2c[nH]c3ccccc23)C(=O)N[C@@H](CCN)C(=O)N[C@@H](Cc2cn(CC(=O)O)c3ccccc23)C(=O)N1C` [Example 1008]: the IC50 at PD-1-Ig/PD-L1-His (setting [3]) came out at 7.3 nM; in test [1], 1.2 nM.

For the molecule `CCCC[C@H]1C(=O)N(C)[C@@H](CCCC)C(=O)N[C@@H](CC(C)C)C(=O)N[C@H](C(=O)NCC(=O)N[C@@H](Cc2cn(CCOCCOCCOCCNC(=O)CC[C@H](NC(=O)CCCCCCCCCCCS(=O)(=O)O)C(=O)O)nn2)C(=O)O)CSCC(=O)N[C@@H](Cc2ccc(O)cc2)C(=O)N(C)[C@@H](C)C(=O)N[C@@H](CC(N)=O)C(=O)N2CCC[C@H]2C(=O)N[C@@H](CN)C(=O)N[C@@H](CC(C)C)C(=O)N2C[C@H](O)C[C@H]2C(=O)N[C@@H](Cc2c[nH]c3ccccc23)C(=O)N[C@@H](CCN)C(=O)N[C@@H](Cc2cn(CC(=O)O)c3ccccc23)C(=O)N1C` [Example 1010], the IC50 in test [1] was determined as 0.13 nM.

As to {CH2CO}-Y[NMeA]NP[Dap]L[Hyp]W[Dab][Trp(1-CH2CO)][NMeNle][NMeNle]LC[Pra′]([PEG11′-γGlu-Hexadecanoyl(16-SO3H)])-OH (thioether N-14; also: Pra linked to Peg11 via triazole) [Example 1001], in test [2], the IC50 amounted to 0.6 nM.
